Earlier results as cited in patent publication US20150141518A1, “WATER-MISCIBLE STABLE SOLUTION COMPOSITION FOR PHARMACEUTICALLY ACTIVE INGREDIENTS THAT ARE POORLY SOLUBLE IN WATER AND SUSCEPTIBLE TO CHEMICAL DEGRADATION” (Emphascience, Inc., priority 2013, published 2015).

How the values were obtained:
[1] = accelerated at extremes of pH and higher temperatures
[2] = room temperature

## CC(=O)Nc1ccc(O)cc1 [paracetamol]
[1]
  overall rate of chemical degradation of paracetamol in solution: first order kinetics
[2]
  solubility of paracetamol in water: ca. 13 mg/mL
